{"source": "paper PMC11347070", "about": "(Current Research in Toxicology, 2024)", "key": {"[1]": {"conditions": "ref FDA, KEPPRA® (levetiracetam), n.d.; cited from earlier work"}, "[2]": {"system": "zebrafish embryos and larvae", "conditions": "exposed to 500 µM ECA; 120 hpf"}, "[3]": {"system": "zebrafish embryos and larvae", "test": "Zebrafish embryo developmental toxicity assay", "conditions": "for BA heart / Coagulation/dead / Curved fin left / Curved fin right / Curved tail / Edema head / Edema pericard / Edema yolk / No hatching / Tissue deviation tail / Tot. malformed (excl. dead) / Tot. malformed (incl. dead) / Deviation eye / Elbow tail: 120 hpf"}}}
{"smiles": "CCC(C(=O)O)N1CCCC1=O", "note": "(stereo not drawn) [ECA, etiracetam carboxylic acid]", "values": [{"measurement": "human metabolite of LTC, share of the administered dose", "setting": "[1]", "value": "24 % of the administered dose"}, {"measurement": "concentration of ECA in larvae", "setting": "[2]", "value": "no concentrations above the LOD could be detected"}, {"measurement": "uptake of ECA", "setting": "[2]", "value": "no uptake of ECA could be observed"}, {"measurement": "BA heart", "setting": "[3]; ECA 1 µM, replicate 1", "value": "0/20"}, {"measurement": "Coagulation/dead", "setting": "[3]; ECA 1 µM, replicate 1", "value": "0/20"}, {"measurement": "Curved fin left", "setting": "[3]; ECA 1 µM, replicate 1", "value": "0/20"}, {"measurement": "Curved fin right", "setting": "[3]; ECA 1 µM, replicate 1", "value": "0/20"}, {"measurement": "Curved tail", "setting": "[3]; ECA 1 µM, replicate 1", "value": "0/20"}, {"measurement": "Edema head", "setting": "[3]; ECA 1 µM, replicate 1", "value": "0/20"}, {"measurement": "Edema pericard", "setting": "[3]; ECA 1 µM, replicate 1", "value": "0/20"}, {"measurement": "Edema yolk", "setting": "[3]; ECA 1 µM, replicate 1", "value": "0/20"}, {"measurement": "No hatching", "setting": "[3]; ECA 1 µM, replicate 1", "value": "0/20"}, {"measurement": "Tissue deviation tail", "setting": "[3]; ECA 1 µM, replicate 1", "value": "0/20"}, {"measurement": "Tot. malformed (excl. dead)", "setting": "[3]; ECA 1 µM, replicate 1", "value": "0/20"}, {"measurement": "Tot. malformed (incl. dead)", "setting": "[3]; ECA 1 µM, replicate 1", "value": "0/20"}, {"measurement": "BA heart", "setting": "[3]; ECA 1 µM, replicate 2", "value": "0/19"}, {"measurement": "Coagulation/dead", "setting": "[3]; ECA 1 µM, replicate 2", "value": "1/20"}, {"measurement": "Curved fin left", "setting": "[3]; ECA 1 µM, replicate 2", "value": "0/19"}, {"measurement": "Curved fin right", "setting": "[3]; ECA 1 µM, replicate 2", "value": "0/19"}, {"measurement": "Curved tail", "setting": "[3]; ECA 1 µM, replicate 2", "value": "0/19"}, {"measurement": "Edema head", "setting": "[3]; ECA 1 µM, replicate 2", "value": "0/19"}, {"measurement": "Edema pericard", "setting": "[3]; ECA 1 µM, replicate 2", "value": "0/19"}, {"measurement": "Edema yolk", "setting": "[3]; ECA 1 µM, replicate 2", "value": "0/19"}, {"measurement": "No hatching", "setting": "[3]; ECA 1 µM, replicate 2", "value": "0/19"}, {"measurement": "Tissue deviation tail", "setting": "[3]; ECA 1 µM, replicate 2", "value": "0/19"}, {"measurement": "Tot. malformed (excl. dead)", "setting": "[3]; ECA 1 µM, replicate 2", "value": "0/19"}, {"measurement": "Tot. malformed (incl. dead)", "setting": "[3]; ECA 1 µM, replicate 2", "value": "1/20"}, {"measurement": "BA heart", "setting": "[3]; ECA 10 µM, replicate 1", "value": "0/18"}, {"measurement": "Coagulation/dead", "setting": "[3]; ECA 10 µM, replicate 1", "value": "2/20"}, {"measurement": "Curved fin left", "setting": "[3]; ECA 10 µM, replicate 1", "value": "0/18"}, {"measurement": "Curved fin right", "setting": "[3]; ECA 10 µM, replicate 1", "value": "0/18"}, {"measurement": "Curved tail", "setting": "[3]; ECA 10 µM, replicate 1", "value": "2/18"}, {"measurement": "Edema head", "setting": "[3]; ECA 10 µM, replicate 1", "value": "0/18"}, {"measurement": "Edema pericard", "setting": "[3]; ECA 10 µM, replicate 1", "value": "0/18"}, {"measurement": "Edema yolk", "setting": "[3]; ECA 10 µM, replicate 1", "value": "0/18"}, {"measurement": "No hatching", "setting": "[3]; ECA 10 µM, replicate 1", "value": "1/18"}, {"measurement": "Tissue deviation tail", "setting": "[3]; ECA 10 µM, replicate 1", "value": "0/18"}, {"measurement": "Tot. malformed (excl. dead)", "setting": "[3]; ECA 10 µM, replicate 1", "value": "2/18"}, {"measurement": "Tot. malformed (incl. dead)", "setting": "[3]; ECA 10 µM, replicate 1", "value": "4/20"}, {"measurement": "BA heart", "setting": "[3]; ECA 10 µM, replicate 2", "value": "0/20"}, {"measurement": "Coagulation/dead", "setting": "[3]; ECA 10 µM, replicate 2", "value": "0/20"}, {"measurement": "Curved fin left", "setting": "[3]; ECA 10 µM, replicate 2", "value": "0/20"}, {"measurement": "Curved fin right", "setting": "[3]; ECA 10 µM, replicate 2", "value": "0/20"}, {"measurement": "Curved tail", "setting": "[3]; ECA 10 µM, replicate 2", "value": "1/20"}, {"measurement": "Edema head", "setting": "[3]; ECA 10 µM, replicate 2", "value": "0/20"}, {"measurement": "Edema pericard", "setting": "[3]; ECA 10 µM, replicate 2", "value": "0/20"}, {"measurement": "Edema yolk", "setting": "[3]; ECA 10 µM, replicate 2", "value": "0/20"}, {"measurement": "No hatching", "setting": "[3]; ECA 10 µM, replicate 2", "value": "0/20"}, {"measurement": "Tissue deviation tail", "setting": "[3]; ECA 10 µM, replicate 2", "value": "0/20"}, {"measurement": "Tot. malformed (excl. dead)", "setting": "[3]; ECA 10 µM, replicate 2", "value": "1/20"}, {"measurement": "Tot. malformed (incl. dead)", "setting": "[3]; ECA 10 µM, replicate 2", "value": "1/20"}, {"measurement": "BA heart", "setting": "[3]; ECA 100 µM, replicate 1", "value": "0/18"}, {"measurement": "Coagulation/dead", "setting": "[3]; ECA 100 µM, replicate 1", "value": "2/20"}, {"measurement": "Curved fin left", "setting": "[3]; ECA 100 µM, replicate 1", "value": "0/18"}, {"measurement": "Curved fin right", "setting": "[3]; ECA 100 µM, replicate 1", "value": "0/18"}, {"measurement": "Curved tail", "setting": "[3]; ECA 100 µM, replicate 1", "value": "0/18"}, {"measurement": "Edema head", "setting": "[3]; ECA 100 µM, replicate 1", "value": "0/18"}, {"measurement": "Edema pericard", "setting": "[3]; ECA 100 µM, replicate 1", "value": "1/18"}, {"measurement": "Edema yolk", "setting": "[3]; ECA 100 µM, replicate 1", "value": "0/18"}, {"measurement": "No hatching", "setting": "[3]; ECA 100 µM, replicate 1", "value": "0/18"}, {"measurement": "Tissue deviation tail", "setting": "[3]; ECA 100 µM, replicate 1", "value": "1/18"}, {"measurement": "Tot. malformed (excl. dead)", "setting": "[3]; ECA 100 µM, replicate 1", "value": "1/18"}, {"measurement": "Tot. malformed (incl. dead)", "setting": "[3]; ECA 100 µM, replicate 1", "value": "3/20"}, {"measurement": "BA heart", "setting": "[3]; ECA 100 µM, replicate 2", "value": "1/20"}, {"measurement": "Coagulation/dead", "setting": "[3]; ECA 100 µM, replicate 2", "value": "0/20"}, {"measurement": "Curved fin left", "setting": "[3]; ECA 100 µM, replicate 2", "value": "1/20"}, {"measurement": "Curved fin right", "setting": "[3]; ECA 100 µM, replicate 2", "value": "1/20"}, {"measurement": "Curved tail", "setting": "[3]; ECA 100 µM, replicate 2", "value": "1/20"}, {"measurement": "Edema head", "setting": "[3]; ECA 100 µM, replicate 2", "value": "1/20"}, {"measurement": "Edema pericard", "setting": "[3]; ECA 100 µM, replicate 2", "value": "2/20"}, {"measurement": "Edema yolk", "setting": "[3]; ECA 100 µM, replicate 2", "value": "1/20"}, {"measurement": "No hatching", "setting": "[3]; ECA 100 µM, replicate 2", "value": "0/20"}, {"measurement": "Tissue deviation tail", "setting": "[3]; ECA 100 µM, replicate 2", "value": "1/20"}, {"measurement": "Tot. malformed (excl. dead)", "setting": "[3]; ECA 100 µM, replicate 2", "value": "2/20"}, {"measurement": "Tot. malformed (incl. dead)", "setting": "[3]; ECA 100 µM, replicate 2", "value": "2/20"}, {"measurement": "Coagulation/dead", "setting": "[3]; ECA 250 µM, replicate 1", "value": "0/20"}, {"measurement": "Curved tail", "setting": "[3]; ECA 250 µM, replicate 1", "value": "0/20"}, {"measurement": "Deviation eye", "setting": "[3]; ECA 250 µM, replicate 1", "value": "0/20"}, {"measurement": "Elbow tail", "setting": "[3]; ECA 250 µM, replicate 1", "value": "1/20"}, {"measurement": "Tissue deviation tail", "setting": "[3]; ECA 250 µM, replicate 1", "value": "1/20"}, {"measurement": "Tot. malformed (excl. dead)", "setting": "[3]; ECA 250 µM, replicate 1", "value": "2/20"}, {"measurement": "Tot. malformed (incl. dead)", "setting": "[3]; ECA 250 µM, replicate 1", "value": "2/20"}, {"measurement": "Coagulation/dead", "setting": "[3]; ECA 250 µM, replicate 2", "value": "0/20"}, {"measurement": "Curved tail", "setting": "[3]; ECA 250 µM, replicate 2", "value": "0/20"}, {"measurement": "Deviation eye", "setting": "[3]; ECA 250 µM, replicate 2", "value": "0/20"}, {"measurement": "Elbow tail", "setting": "[3]; ECA 250 µM, replicate 2", "value": "0/20"}, {"measurement": "Tissue deviation tail", "setting": "[3]; ECA 250 µM, replicate 2", "value": "0/20"}, {"measurement": "Tot. malformed (excl. dead)", "setting": "[3]; ECA 250 µM, replicate 2", "value": "0/20"}, {"measurement": "Tot. malformed (incl. dead)", "setting": "[3]; ECA 250 µM, replicate 2", "value": "0/20"}, {"measurement": "Coagulation/dead", "setting": "[3]; ECA 500 µM, replicate 1", "value": "0/20"}, {"measurement": "Curved tail", "setting": "[3]; ECA 500 µM, replicate 1", "value": "1/20"}, {"measurement": "Deviation eye", "setting": "[3]; ECA 500 µM, replicate 1", "value": "1/20"}, {"measurement": "Elbow tail", "setting": "[3]; ECA 500 µM, replicate 1", "value": "0/20"}, {"measurement": "Tissue deviation tail", "setting": "[3]; ECA 500 µM, replicate 1", "value": "1/20"}, {"measurement": "Tot. malformed (excl. dead)", "setting": "[3]; ECA 500 µM, replicate 1", "value": "2/20"}, {"measurement": "Tot. malformed (incl. dead)", "setting": "[3]; ECA 500 µM, replicate 1", "value": "2/20"}, {"measurement": "Coagulation/dead", "setting": "[3]; ECA 500 µM, replicate 2", "value": "0/20"}, {"measurement": "Curved tail", "setting": "[3]; ECA 500 µM, replicate 2", "value": "0/20"}, {"measurement": "Deviation eye", "setting": "[3]; ECA 500 µM, replicate 2", "value": "0/20"}, {"measurement": "Elbow tail", "setting": "[3]; ECA 500 µM, replicate 2", "value": "0/20"}, {"measurement": "Tissue deviation tail", "setting": "[3]; ECA 500 µM, replicate 2", "value": "1/20"}, {"measurement": "Tot. malformed (excl. dead)", "setting": "[3]; ECA 500 µM, replicate 2", "value": "1/20"}, {"measurement": "Tot. malformed (incl. dead)", "setting": "[3]; ECA 500 µM, replicate 2", "value": "1/20"}, {"measurement": "differences between test groups and embryo medium control group", "setting": "[3]; all test concentrations, 24 to 120 hpf, Fisher Exact test", "value": "no statistically significant differences"}, {"measurement": "teratogenicity in zebrafish larvae", "setting": "[3]; concentrations up to 10,000 µM LTC and 500 µM ECA, likely due to limited uptake or lack of uptake", "value": "non-teratogenic"}]}
